US7579469B2, “Glucocorticoid mimetics, methods of making them, pharmaceutical compositions, and uses thereof” (Boehringer Ingelheim Pharmaceuticals, Inc., priority 2003, dated 2009)

Biological target: T1, human glucocorticoid receptor (GR) complex (Homo sapiens, UniProt P04150)
T1 construct: made in house; host or cells: insect expression system (baculovirus lysate)
T1 sequence (P04150 1-777): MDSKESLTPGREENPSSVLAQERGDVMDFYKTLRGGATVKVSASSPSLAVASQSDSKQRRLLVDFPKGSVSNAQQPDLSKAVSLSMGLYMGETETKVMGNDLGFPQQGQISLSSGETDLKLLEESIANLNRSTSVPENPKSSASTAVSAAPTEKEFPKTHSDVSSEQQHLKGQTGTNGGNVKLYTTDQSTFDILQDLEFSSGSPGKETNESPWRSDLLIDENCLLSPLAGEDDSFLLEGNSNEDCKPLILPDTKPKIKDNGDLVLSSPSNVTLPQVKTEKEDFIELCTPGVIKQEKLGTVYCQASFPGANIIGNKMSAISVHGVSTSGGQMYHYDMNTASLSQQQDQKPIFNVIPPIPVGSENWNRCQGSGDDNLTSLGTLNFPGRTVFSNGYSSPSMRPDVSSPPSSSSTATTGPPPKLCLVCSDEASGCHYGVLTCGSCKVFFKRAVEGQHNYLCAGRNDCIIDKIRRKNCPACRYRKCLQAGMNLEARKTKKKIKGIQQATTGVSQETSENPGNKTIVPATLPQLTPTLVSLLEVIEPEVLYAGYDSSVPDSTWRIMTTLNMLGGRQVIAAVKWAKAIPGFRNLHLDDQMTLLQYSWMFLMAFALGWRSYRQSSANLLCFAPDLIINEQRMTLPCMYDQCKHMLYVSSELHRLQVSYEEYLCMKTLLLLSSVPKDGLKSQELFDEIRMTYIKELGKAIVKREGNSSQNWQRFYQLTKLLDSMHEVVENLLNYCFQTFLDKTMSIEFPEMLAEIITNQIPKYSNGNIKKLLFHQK
Test: Glucocorticoid receptor competitive binding assay (fluorescence polarization)
Settings: competition with TAMRA-labeled dexamethasone
Description: Compounds of the invention were evaluated for binding to the steroid receptor by a fluorescence polarization competitive binding assay.
A. Glucocorticoid Receptor Competitive Binding Assay
Step 1. Characterization of the Fluorescent Probe
The wavelengths for maximum excitation and emission of the fluorescent probe should first be measured. An example of such a probe is rhodamine (TAMRA)-labeled dexamethasone.
The affinity of the probe for the steroid receptor was then determined in a titration experiment. The fluorescence polarization value of the probe in assay buffer was measured on an SLM-8100 fluorometer using the excitation and emission maximum values described above. Aliquots of expression vector lysate were added and fluorescence polarization was measured after each addition until no further change in polarization value was observed. Non-linear least squares regression analysis was used to calculate the dissociation constant of the probe from the polarization values obtained for lysate binding to the probe.
Step 2. Screening for Inhibitors of Probe Binding
This assay uses fluorescence polarization (FP) to quantitate the ability of test compounds to compete with tetramethyl rhodamine (TAMRA)-labeled dexamethasone for binding to a human glucocorticoid receptor (GR) complex prepared from an insect expression system. The assay buffer was: 10 mM TES, 50 mM KCl, 20 mM Na2MoO4.2H20, 1.5 mM EDTA, 0.04% w/v CHAPS, 10% v/v glycerol, 1 mM dithiothreitol, pH 7.4. Test compounds were dissolved to 1 mM in neat DMSO and then further diluted to 10× assay concentration in assay buffer supplemented with 10% v/v DMSO. Test compounds were serially diluted at 10× assay concentrations in 10% DMSO-containing buffer in 96-well polypropylene plates. Binding reaction mixtures were prepared in 96-well black Dynex microtiter plates by sequential addition of the following assay components to each well: 15 μL of 10× test compound solution, 85 μL of GR-containing baculovirus lysate diluted 1:170 in assay buffer, and 50 μL of 15 nM TAMRA-labeled dexamethasone. Positive controls were reaction mixtures containing no test compound; negative controls (blanks) were reaction mixtures containing 0.7 μM to 2 μM dexamethasone. […] IC50 values were determined by iterative non-linear curve fitting of the FP signal data to a 4-parameter logistic equation.

activity in the GR binding assay	Structure (SMILES)
potent activity	COc1ccc(F)cc1C(C)(C)CC(O)(CN1CC(C)N(C=O)C(C)C1)C(F)(F)F (stereo not shown) [4-[4-(5-Fluoro-2-methoxyphenyl)-2-hydroxy-4-methyl-2-trifluoromethylpentyl]-2,6-dimethylpiperazine-1-carbaldehyde]
potent activity	COc1ccc(F)cc1C(C)(C)CC(O)(Cn1ccc(=O)c2cc(Cl)ccc21)C(F)(F)F (stereo not shown) [6-Chloro-1-[4-(5-fluoro-2-methoxyphenyl)-2-hydroxy-4-methyl-2-trifluoromethylpentyl]-1H-quinolin-4-one]
potent activity	COc1ccc(F)cc1C(C)(C)CC(O)(Cn1ncc(=O)c2ccccc21)C(F)(F)F (stereo not shown) [1-[4-(5-Fluoro-2-methoxyphenyl)-2-hydroxy-4-methyl-2-trifluoromethylpentyl]-1H-cinnolin-4-one]
potent activity	CC(C)(CC(O)(Cn1ccc(=O)c2ccccc21)C(F)(F)F)c1cccc(C=O)c1 (stereo not shown) [3-[4,4,4-Trifluoro-3-hydroxy-1,1-dimethyl-3-(4-oxo-4H-quinolin-1-ylmethyl)butyl]benzaldehyde]
potent activity	CC(C)Oc1cccc(C(C)(C)CC(O)(Cn2ccc(=O)c3ccccc32)C(F)(F)F)c1 (stereo not shown)
potent activity	COc1ccc(-c2cncnc2)cc1C(C)(C)CC(O)(Cn1ccc(=O)c2ccccc21)C(F)(F)F (stereo not shown)
potent activity	CC(C)(CC(O)(Cn1ccc(=O)c2ccccc21)C(F)(F)F)c1cc(F)cc2c1OCC2 (stereo not shown)
potent activity	CC(C)Oc1ccc(F)cc1C(C)(C)CC(O)(Cn1ccc(=O)c2ccccc21)C(F)(F)F (stereo not shown)
potent activity	COc1ccc(C)cc1C(C)(C)CC(O)(Cn1ccc(=O)c2ccccc21)C(F)(F)F (stereo not shown) [1-[2-Hydroxy-4-(2-methoxy-5-methylphenyl)-4-methyl-2-trifluoromethylpentyl]-1H-quinolin-4-one]
potent activity	CC(C)(CC(O)(Cn1ccc(=O)c2ccccc21)C(F)(F)F)c1cccc(-c2cccnc2)c1 (stereo not shown)
potent activity	COc1ccc(F)cc1C(C)(C)CC(O)(Cn1cc(C(F)(F)F)cc(Cl)c1=O)C(F)(F)F (stereo not shown) [3-Chloro-1-[4-(5-fluoro-2-methoxyphenyl)-2-hydroxy-4-methyl-2-trifluoromethylpentyl]-5-trifluoromethyl-1H-pyridin-2-one]
potent activity	COc1ccc(CO)cc1C(C)(C)CC(O)(Cn1ccc(=O)c2ccccc21)C(F)(F)F (stereo not shown) [1-[2-Hydroxy-4-(5-hydroxymethyl-2-methoxyphenyl)-4-methyl-2-trifluoromethylpentyl]-1H-quinolin-4-one]
potent activity	CC(C)(CC(O)(Cn1ccc(=O)c2ccccc21)C(F)(F)F)c1cc(Br)ccc1O (stereo not shown) [1-[4-(5-Bromo-2-hydroxyphenyl)-2-hydroxy-4-methyl-2-trifluoromethylpentyl]-1H-quinolin-4-one]
potent activity	CC(C)(CC(O)(Cn1ccc(=O)c2ccccc21)C(F)(F)F)c1cccc(CO)c1 (stereo not shown)
potent activity	COc1ccc(F)cc1C(C)(C)CC(O)(Cn1cc(C)c(=O)c2ccccc21)C(F)(F)F (stereo not shown)
potent activity	Cc1ccc(C)c(C(C)(C)CC(O)(Cn2ccc(=O)c3ccccc32)C(F)(F)F)c1 (stereo not shown)
potent activity	COc1c(C)cc(C)cc1C(C)(C)CC(O)(Cn1ccc(=O)c2ccccc21)C(F)(F)F (stereo not shown)

activity in the GR binding assay	Structure (SMILES)
potent activity	COc1ccc(F)cc1C(C)(C)CC(O)(CN1CCS(=O)(=O)c2ccccc21)C(F)(F)F (stereo not shown) [2-(1,1-Dioxo-2,3-dihydro-1H-1λ^6-benzo[1,4]thiazin-4-ylmethyl)-1,1,1-trifluoro-4-(5-fluoro-2-methoxyphenyl)-4-methylpentan-2-ol]
potent activity	CSc1cc2c(c(C(C)(C)CC(O)(Cn3ccc(=O)c4ccccc43)C(F)(F)F)c1)OCC2 (stereo not shown) [1-[2-Hydroxy-4-methyl-4-(5-methylsulfanyl-2,3-dihydrobenzofuran-7-yl)-2-trifluoromethylpentyl]-1H-quinolin-4-one]
potent activity	Cc1ccc(F)cc1C(C)(C)CC(O)(Cn1ccc(=O)c2ccccc21)C(F)(F)F (stereo not shown)
potent activity	CC(C)(CC(O)(CN1CCN(C(=O)c2ccco2)CC1)C(F)(F)F)c1cc(F)ccc1O (stereo not shown) [{4-[4-(5-Fluoro-2-hydroxyphenyl)-2-hydroxy-4-methyl-2-trifluoromethylpentyl]piperazin-1-yl}furan-2-ylmethanone]
potent activity	COc1ccc(C(C)=O)cc1C(C)(C)CC(O)(Cn1ccc(=O)c2ccccc21)C(F)(F)F (stereo not shown) [1-[4-(5-Acetyl-2-methoxyphenyl)-2-hydroxy-4-methyl-2-trifluoromethylpentyl]-1H-quinolin-4-one]
potent activity	CC(C)(CC(O)(Cn1ccc(=O)c2ccccc21)C(F)(F)F)c1ccccc1 (stereo not shown) [1-[4-Phenyl-2-hydroxy-4-methyl-2-trifluoromethylpentyl]-1H-quinolin-4-one]
potent activity	COc1ccc(F)cc1C(C)(C)CC(O)(Cn1ccc(=O)c2ccccc21)C(F)F (stereo not shown)
potent activity	C/C(=N/OCc1ccccc1)c1cccc(C(C)(C)CC(O)(Cn2ccc(=O)c3ccccc32)C(F)(F)F)c1 (stereo not shown) [1-(4-{3-[1-(Benzyloxyimino)ethyl]phenyl}-2-hydroxy-4-methyl-2-trifluoromethylpentyl)-1H-quinolin-4-one]
potent activity	COc1ccc(F)cc1C(C)(C)CC(O)(Cn1ccc(=O)c2ccc(Cl)cc21)C(F)(F)F (stereo not shown) [7-Chloro-1-[4-(5-fluoro-2-methoxyphenyl)-2-hydroxy-4-methyl-2-trifluoromethylpentyl]-1H-quinolin-4-one]
potent activity	Cc1cc(F)ccc1C(C)(C)CC(O)(Cn1ccc(=O)c2ccccc21)C(F)(F)F (stereo not shown)
potent activity	COc1ccc(F)cc1C(C)(C)CC(O)(Cn1cc(C(F)(F)F)cc([N+](=O)[O-])c1=O)C(F)(F)F (stereo not shown) [1-[4-(5-Fluoro-2-methoxyphenyl)-2-hydroxy-4-methyl-2-trifluoromethylpentyl]-3-nitro-5-trifluoromethyl-1H-pyridin-2-one]
potent activity	CC(C)(CC(O)(Cn1ccc(=O)c2ccccc21)C(F)(F)F)c1cc(CN2CCOCC2)ccc1O (stereo not shown) [1-[2-Hydroxy-4-(2-hydroxy-5-morpholin-4-ylmethylphenyl)-4-methyl-2-trifluoromethylpentyl]-1H-quinolin-4-one]
potent activity	CC(=NO)c1cccc(C(C)(C)CC(O)(Cn2ccc(=O)c3ccccc32)C(F)(F)F)c1 (stereo not shown) [1-(2-Hydroxy-4-{3-[1-(hydroxyimino)ethyl]phenyl}4-methyl-2-trifluoromethylpentyl)-1H-quinolin-4-one]
potent activity	CC(C)(CC(O)(Cn1ccc(=O)c2ccccc21)C(F)(F)F)c1cccc(O)c1 (stereo not shown) [1-[2-Hydroxy-4-(3-hydroxyphenyl)-4-methyl-2-trifluoromethylpentyl]-1H-quinolin-4-one]
potent activity	CC(C)(CC(O)(Cn1ccc(=O)c2ccccc21)C(F)(F)F)c1cccc(CN2CCOCC2)c1 (stereo not shown)
potent activity	COc1ccc(-c2cccnc2)cc1C(C)(C)CC(O)(Cn1ccc(=O)c2ccccc21)C(F)(F)F (stereo not shown)
potent activity	COc1ccc(F)cc1C(C)(C)CC(O)(Cn1ccc(=O)c2cc(C)ccc21)C(F)(F)F (stereo not shown)
